According to patent publication US9096500B2, “Acyl sulfonamide compounds” (Pfizer Limited, priority 2010, dated 2015):
Counter-ions that a name gives are not always drawn.

What follows are compounds tested against T1, Nav1.7 (or SCN9A) channel (Homo sapiens, UniProt Q15858) (assay: Nav1.7 (hSCN9A) electrophysiology assay, PatchXpress platform). Conditions: estimated IC50 from single point electrophysiology data, HEK cells stably expressing hSCN9A, held at V1/2 of inactivation, read-out: Nav1.7 EIC50.
T1 construct: expressed in transfected cells
T1 sequence (Q15858 whole entry): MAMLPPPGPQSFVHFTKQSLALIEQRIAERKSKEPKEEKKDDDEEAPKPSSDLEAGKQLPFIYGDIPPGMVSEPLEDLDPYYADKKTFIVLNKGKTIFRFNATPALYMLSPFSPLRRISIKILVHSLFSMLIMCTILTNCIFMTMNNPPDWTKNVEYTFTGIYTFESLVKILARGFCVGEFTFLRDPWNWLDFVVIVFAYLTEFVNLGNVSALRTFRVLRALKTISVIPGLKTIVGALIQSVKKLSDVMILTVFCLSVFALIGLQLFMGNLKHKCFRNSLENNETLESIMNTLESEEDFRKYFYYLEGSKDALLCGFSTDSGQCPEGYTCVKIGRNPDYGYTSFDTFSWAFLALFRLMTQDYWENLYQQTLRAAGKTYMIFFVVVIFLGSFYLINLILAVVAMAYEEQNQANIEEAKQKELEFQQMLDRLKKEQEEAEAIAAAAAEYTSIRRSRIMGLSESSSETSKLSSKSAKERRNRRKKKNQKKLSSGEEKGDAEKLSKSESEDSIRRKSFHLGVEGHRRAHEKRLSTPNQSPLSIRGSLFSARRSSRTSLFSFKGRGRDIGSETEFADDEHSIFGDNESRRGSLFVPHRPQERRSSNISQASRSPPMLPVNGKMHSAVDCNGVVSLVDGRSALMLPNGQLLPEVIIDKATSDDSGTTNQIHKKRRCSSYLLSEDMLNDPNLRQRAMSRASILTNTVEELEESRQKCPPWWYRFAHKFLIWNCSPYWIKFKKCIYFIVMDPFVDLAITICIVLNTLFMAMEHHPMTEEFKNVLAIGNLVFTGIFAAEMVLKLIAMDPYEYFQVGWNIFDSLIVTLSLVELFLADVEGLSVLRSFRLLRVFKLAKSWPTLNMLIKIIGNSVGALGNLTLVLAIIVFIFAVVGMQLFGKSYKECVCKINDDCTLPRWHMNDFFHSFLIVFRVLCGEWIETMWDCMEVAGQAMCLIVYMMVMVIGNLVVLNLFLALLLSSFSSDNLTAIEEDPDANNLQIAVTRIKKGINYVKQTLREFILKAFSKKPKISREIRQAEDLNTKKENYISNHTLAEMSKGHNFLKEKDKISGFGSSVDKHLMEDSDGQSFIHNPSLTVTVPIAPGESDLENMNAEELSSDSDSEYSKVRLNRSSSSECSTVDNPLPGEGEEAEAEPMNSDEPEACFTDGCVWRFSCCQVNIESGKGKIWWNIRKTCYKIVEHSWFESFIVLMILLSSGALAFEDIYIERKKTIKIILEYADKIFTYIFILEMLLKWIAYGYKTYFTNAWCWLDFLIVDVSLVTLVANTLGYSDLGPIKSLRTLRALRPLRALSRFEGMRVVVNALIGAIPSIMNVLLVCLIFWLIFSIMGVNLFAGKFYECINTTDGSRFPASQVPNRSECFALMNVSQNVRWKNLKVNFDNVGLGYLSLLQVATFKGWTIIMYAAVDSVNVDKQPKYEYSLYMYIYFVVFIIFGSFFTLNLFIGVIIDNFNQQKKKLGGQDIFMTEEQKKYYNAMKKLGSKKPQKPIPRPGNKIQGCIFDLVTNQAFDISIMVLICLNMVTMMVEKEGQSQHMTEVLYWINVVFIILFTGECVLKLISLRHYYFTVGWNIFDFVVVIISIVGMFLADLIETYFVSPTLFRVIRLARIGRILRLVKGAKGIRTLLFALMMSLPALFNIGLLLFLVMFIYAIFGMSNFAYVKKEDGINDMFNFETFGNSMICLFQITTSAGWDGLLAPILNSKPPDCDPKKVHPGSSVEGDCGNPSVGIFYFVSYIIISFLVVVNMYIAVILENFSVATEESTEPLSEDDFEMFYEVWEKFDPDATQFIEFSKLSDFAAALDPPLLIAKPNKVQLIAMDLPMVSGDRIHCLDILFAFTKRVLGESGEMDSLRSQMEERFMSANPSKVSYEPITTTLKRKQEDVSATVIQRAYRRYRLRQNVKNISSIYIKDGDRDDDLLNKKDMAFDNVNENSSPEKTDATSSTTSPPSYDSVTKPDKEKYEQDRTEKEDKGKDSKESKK
Type: cell-based
In short: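 HEK cells stably expressing hSCN9A were recorded by whole-cell voltage clamp, including on PatchXpress, at 22–24°C with extracellular solution at pH 7.4. A 20 msec step to 0 mV followed an 8 s conditioning prepulse to the empirically determined inactivation V1/2. Inhibition was taken from current amplitude before vs after compound.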

| IC50 [nM] | SMILES |
| --- | --- |
| > 1000 | CS(=O)(=O)NC(=O)c1cc(F)c(COc2ccc(Cl)cc2F)cc1F [Example 133, 4-[(4-chloro-2-fluorophenoxy)methyl]-2,5-difluoro-N-(methylsulfonyl)benzamide] |
| 1400 | CS(=O)(=O)NC(=O)c1cc(F)c(COc2ccc(F)c(C#N)c2)cc1F [Example 125, 4-[(3-cyano-4-fluorophenoxy)methyl]-2,5-difluoro-N-(methylsulfonyl)benzamide] |
| 250 | CCc1ccc(OCc2ccc(C(=O)NS(C)(=O)=O)cc2OC)cc1 [Example 42, 4-[(4-Ethylphenoxy)methyl]-3-methoxy-N-(methylsulfonyl)benzamide diethylamine salt] |
| 1500 | CS(=O)(=O)NC(=O)c1ccc(OCc2cccc(Cl)c2Cl)cc1 [Example 189, 4-[(2,3-dichlorobenzyl)oxy]-N-(methylsulfonyl)benzamide] |
| 7300 | CS(=O)(=O)NC(=O)c1ccc(OCc2ccccc2Cl)cc1 [Example 186, 4-[(2-chlorobenzyl)oxy]-N-(methylsulfonyl)benzamide] |
| 1300 | CS(=O)(=O)NC(=O)c1ccc(OCc2ccccc2OC(F)(F)F)c(Cl)c1 [Example 6, 3-Chloro-N-(methylsulfonyl)-4-{[2-(trifluoromethoxy)benzyl]oxy}benzamide] |
| > 3000 | Cc1c(OCc2cc(F)c(C(=O)NS(C)(=O)=O)cc2F)cccc1-n1cccn1 [Example 102, 2,5-difluoro-4-{[2-methyl-3-(1H-pyrazol-1-yl)phenoxy]methyl}-N-(methylsulfonyl)benzamide] |
| 35 | CS(=O)(=O)NC(=O)c1cc(Cl)c(COc2ccc(Cl)c(OC(F)(F)F)c2)cc1F [Example 63, 5-Chloro-4-{[4-chloro-3-(trifluoromethoxy)phenoxy]methyl}-2-fluoro-N-(methylsulfonyl)benzamide] |
| 3600 | COc1cc(COc2cc(F)c(C(=O)NS(C)(=O)=O)cc2F)ccc1C [Example 222, 2,5-difluoro-4-[(3-methoxy-4-methylbenzyl)oxy]-N-(methylsulfonyl)benzamide] |
| 160 | CS(=O)(=O)NC(=O)c1cc(F)c(OCc2ccc(Cl)c(C(F)(F)F)c2)cc1F [Example 70, 4-(4-Chloro-3-(trifluoromethyl)benzyloxy)-2,5-difluoro-N-(methylsulfonyl) benzamide] |
| 130 | Cc1cc(OCc2cc(F)c(C(=O)NS(C)(=O)=O)cc2F)ccc1Cl [Example 159, 4-[(4-chloro-3-methylphenoxy)methyl]-2,5-difluoro-N-(methylsulfonyl)benzamide] |
| 64 | CS(=O)(=O)NC(=O)c1cc(F)c(COc2ccc(C(F)(F)F)c(Cl)c2)cc1F [Example 2, 4-{[3-Chloro-4-(trifluoromethyl)phenoxy]methyl}-2,5-difluoro-N-(methylsulfonyl)benzamide] |
| 1400 | CS(=O)(=O)NC(=O)c1cc(F)c(OCc2ccc(Cl)cc2F)cc1F [Example 231, 4-[(4-chloro-2-fluorobenzyl)oxy]-2,5-difluoro-N-(methylsulfonyl)benzamide] |
| 640 | CS(=O)(=O)NC(=O)c1cc(Cl)c(OCc2ccccc2-c2ccccc2)cc1F [Example 87, 4-(biphenyl-2-ylmethoxy)-5-chloro-2-fluoro-N-(methylsulfonyl)benzamide] |
| > 1000 | Cc1cc(Cl)c(OCc2cc(F)c(C(=O)NS(C)(=O)=O)cc2F)cc1C#N [Example 131, 4-[(2-chloro-5-cyano-4-methylphenoxy)methyl]-2,5-difluoro-N-(methylsulfonyl)benzamide] |
| 9200 | CS(=O)(=O)NC(=O)c1cc(F)c(OCc2ccc(Cl)c(C#N)c2)cc1F [Example 67, 4-(4-Chloro-3-cyanobenzyloxy)-2,5-difluoro-N-(methylsulfonyl)benzamide Diethylamine salt] |
| 380 | Cc1cc(C)cc(OCc2cc(F)c(C(=O)NS(C)(=O)=O)cc2F)c1 [Example 119, 4-[(3,5-dimethylphenoxy)methyl]-2,5-difluoro-N-(methylsulfonyl)benzamide] |
| 940 | CS(=O)(=O)NC(=O)c1cc(F)c(OCc2ccc3ccccc3c2)cc1F [Example 227, 2,5-difluoro-N-(methylsulfonyl)-4-(2-naphthylmethoxy)benzamide] |
| 560 | CCc1ccc(OCc2ccc(C(=O)NS(C)(=O)=O)c(F)c2)cc1 [Example 40, 4-[(4-Ethylphenoxy)methyl]-2-fluoro-N-(methylsulfonyl)benzamide diethylamine salt] |
| 4300 | CS(=O)(=O)NC(=O)c1ccc(OCc2ccccc2-c2ccccc2)cc1 [Example 94, 4-(biphenyl-2-ylmethoxy)-N-(methylsulfonyl)benzamide] |
| 570 | CS(=O)(=O)NC(=O)c1cc(F)c(COc2cccc(F)c2)cc1F [Example 116, 2,5-difluoro-4-[(3-fluorophenoxy)methyl]-N-(methylsulfonyl)benzamide] |
| 620 | Cc1ccc(OCc2cc(F)c(C(=O)NS(C)(=O)=O)cc2F)cc1 [Example 115, 2,5-difluoro-4-[(4-methylphenoxy)methyl]-N-(methylsulfonyl)benzamide] |

| IC50 [nM] | SMILES |
| --- | --- |
| 390 | Cc1ccc(Cl)cc1OCc1cc(F)c(C(=O)NS(C)(=O)=O)cc1F [Example 100, 4-[(5-chloro-2-methylphenoxy)methyl]-2,5-difluoro-N-(methylsulfonyl)benzamide] |
| 240 | CS(=O)(=O)NC(=O)c1ccc(COc2ccc(Cl)c(Cl)c2)c(C#N)c1 [Example 69, 5-Cyano-4-((3,4-dichlorophenoxy)methyl)-N-(methylsulfonyl)benzamide Diethylamine salt] |
| 2600 | CS(=O)(=O)NC(=O)c1cc(F)c(OCc2ccc(OC(F)F)cc2)cc1F [Example 211, 4-{[4-(difluoromethoxy)benzyl]oxy}-2,5-difluoro-N-(methylsulfonyl)benzamide] |
| > 1000 | CS(=O)(=O)NC(=O)c1cc(F)c(OCC2CCC2)cc1F [Example 197, 4-(cyclobutylmethoxy)-2,5-difluoro-N-(methylsulfonyl)benzamide] |
| 450 | CS(=O)(=O)NC(=O)c1ccc(OCc2ccc(-c3ccccc3)cc2)cc1 [Example 85, 4-(biphenyl-4-ylmethoxy)-N-(methylsulfonyl)benzamide] |
| 1100 | CS(=O)(=O)NC(=O)c1cc(F)c(COc2ccc(F)c(F)c2)cc1F [Example 48, 4-[(3,4-Difluorophenoxy)methyl]-2,5-difluoro-N-(methylsulfonyl)benzamide] |
| 2500 | COc1ccc(F)c(COc2ccc(C(=O)NS(C)(=O)=O)cc2)c1 [Example 188, 4-[(2-fluoro-5-methoxybenzyl)oxy]-N-(methylsulfonyl)benzamide] |
| 380 | CS(=O)(=O)NC(=O)c1ccc(COc2ccc(Cl)c(C(F)(F)F)c2)cc1 [Example 27, 4-{[4-Chloro-3-(trifluoromethyl)phenoxy]methyl}-N-(methylsulfonyl)benzamide] |
| > 1000 | COc1cccc(COc2cc(F)c(C(=O)NS(C)(=O)=O)cc2F)c1OC [Example 206, 4-[(2,3-dimethoxybenzyl)oxy]-2,5-difluoro-N-(methylsulfonyl)benzamide] |
| 88 | CS(=O)(=O)NC(=O)c1cc(F)c(COc2cccc(OC(F)(F)F)c2)cc1F [Example 56, 4-[(3-Trifluoromethoxy)methyl]-2,5-difluoro-N-(methylsulfonyl)benzamide] |
| 6900 | COc1cccc(OCc2ccc(C(=O)NS(C)(=O)=O)cc2)c1 [Example 8, 4-[(3-Methoxyphenoxy)methyl]-Nethylsulfonyl)benzamide diethylamine salt] |
| > 1000 | CS(=O)(=O)NC(=O)c1cc(F)c(COc2cc(F)cc(F)c2)cc1F [Example 118, 4-[(3,5-difluorophenoxy)methyl]-2,5-difluoro-N-(methylsulfonyl)benzamide] |
| > 1000 | CS(=O)(=O)NC(=O)c1cc(F)c(COc2ccc(Cl)cc2-c2ccno2)cc1F [Example 148, 4-[(4-chloro-2-isoxazol-5-ylphenoxy)methyl]-2,5-difluoro-N-(methylsulfonyl)benzamide] |
| 670 | CS(=O)(=O)NC(=O)c1cc(F)c(OCc2ccc(Cl)c(Cl)c2)cc1F [Example 9, 4-[(3,4-Dichlorobenzyl)oxy]-2,5-difluoro-N-(methylsulfonyl)benzamide] |
| 58 | COc1cc(C(=O)NS(C)(=O)=O)ccc1COc1ccc(Cl)c(Cl)c1 [Example 19, 4-((3,4-Dichlorophenoxy)methyl)-3-methoxy-N-(methylsulfonyl)benzamide] |
| 2600 | CS(=O)(=O)NC(=O)c1ccc(OCc2cc(F)ccc2F)cc1 [Example 208, 4-[(2,5-difluorobenzyl)oxy]-N-(methylsulfonyl)benzamide] |
| 4700 | CS(=O)(=O)NC(=O)c1cc(F)c(OCc2ccc(C(F)(F)F)cc2)cc1F [Example 193, 2,5-difluoro-N-(methylsulfonyl)-4-{[4-(trifluoromethyl)benzyl]oxy}benzamide] |
| 6400 | CS(=O)(=O)NC(=O)c1ccc(OCc2ccc(Cl)cc2)c(Cl)c1 [Example 73, 3-chloro-4-[(4-chlorobenzyl)oxy]-N-(methylsulfonyl)benzamide] |
| 700 | Cc1ccc(OCc2cc(F)c(C(=O)NS(C)(=O)=O)cc2F)cc1C [Example 120, 4-[(3,4-dimethylphenoxy)methyl]-2,5-difluoro-N-(methylsulfonyl)benzamide] |
| > 1000 | COc1cc(COc2cc(F)c(C(=O)NS(C)(=O)=O)cc2F)ccc1Cl [Example 66, 4-(4-Chloro-3-methoxybenzyloxy)-2,5-difluoro-N-(methylsulfonyl)benzamide] |
| 390 | CS(=O)(=O)NC(=O)c1cc(Cl)c(OCc2ccccc2Cl)cc1F [Example 78, 5-chloro-4-[(2-chlorobenzyl)oxy]-2-fluoro-N-(methylsulfonyl)benzamide] |
